Data published in the supplement of paper PMC5579334.

What was measured:
HS-PSS [1] = test: relative IC50 (inflection point of fitted dose-response curve, CellTox-Green cytotoxicity, 72 h; top asymptote may be below 50%); higher = less potent
Outline: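 MPNST cell lines and primary human Schwann cells were grown for 72 h at 37 °C in 384-well plates containing five 10-fold compound dilutions. CellTox-Green, added before seeding at a final 1:1000 dilution, gave fluorescence from DNA released by disrupted cells, and signals were scaled to vehicle and positive-control wells. Curves were fitted with a four-parameter logistic model. Drug sensitivity score and relative IC50 come from these fits, with IC50 censored at the top concentration.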

HS-PSS [2] = test: relative IC50 (inflection point of fitted dose-response curve, CellTiter-Glo viability, 72 h; top asymptote may be below 50% inhibition); higher = less potent
Outline: (§1)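 Viability of MPNST cell lines and primary human Schwann cells was read as CellTiter-Glo ATP luminescence after 72 h at 37 °C, 5% CO2, in 384-well plates seeded with 750–1000 cells per well. Each compound had been preprinted at five concentrations in 10-fold steps. Signals were scaled between vehicle and positive-control wells, duplicates averaged where present, and fitted with four-parameter logistic curves. Drug sensitivity score and relative IC50 (censored at the top concentration) come from those fits, and percent inhibition is taken at the top concentration.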

YST-1 = test: as above
Outline: as §1

HS-Sch-2 = test: as above
Outline: as §1

Compound	relative IC50 (HS-PSS [1]) [nM]	relative IC50 (HS-PSS [2]) [nM]	relative IC50 (YST-1) [nM]	relative IC50 (HS-Sch-2) [nM]
CCC(C)n1ncn(-c2ccc(N3CCN(c4ccc(OCC5COC(Cn6cncn6)(c6ccc(Cl)cc6Cl)O5)cc4)CC3)cc2)c1=O (stereo not given) [Itraconazole]	> 5000	904	1540	
Cc1ccc(NC(=O)c2ccc(CN3CC[C@H](N(C)C)C3)c(C(F)(F)F)c2)cc1Nc1nccc(-c2cncnc2)n1 [Bafetinib]	> 1000	> 1000	259	
Cc1nc(-c2cn3c(n2)-c2ccc(-c4cnn(C(C)(C)C(N)=O)c4)cc2OCC3)n(C(C)C)n1 [Taselisib]	> 1000	425	24.9	
O=C(Nc1ccc(-c2ccnc(Nc3ccc(N4CCOCC4)cc3)n2)cc1)[C@H]1CCCN1 [XL019]	> 10000	2850		
COCC1(CO)C(=O)C2CCN1CC2 (stereo not given) [APR-246]	> 10000		> 10000	> 10000
NC1(C(=O)N[C@@H](CCO)c2ccc(Cl)cc2)CCN(c2ncnc3[nH]ccc23)CC1 [AZD-5363]	> 10000		2090	3470
CNc1nc(Nc2cn(C(C)(C)C#N)nc2C)ncc1C(F)(F)F [GNE-0877]	> 1000		> 1000	> 1000
C[C@H]1Oc2cc(cnc2N)-c2c(nn(C)c2C#N)CN(C)C(=O)c2ccc(F)cc21	> 1000	10.7	> 1000	
c1cc(CN2CCCNCCNCCCNCC2)ccc1CN1CCCNCCNCCCNCC1 [Plerixafor]	> 10000		> 10000	> 10000
CNC(=O)c1c(F)cccc1Nc1nc(Nc2cc3c(cc2OC)CCN3C(=O)CN(C)C)nc2[nH]ccc12		32.1	73	
COC(=O)c1ccc2c(c1)[nH]c1ncnc(NCCCN3CCCCC3)c12 [UM729]	> 10000		560	3140
COc1ccc(Cn2ccc3ccc(C(=O)NO)cc32)cc1	> 10000		1600	3750
CNC(=O)CN1CCC(Oc2cc3c(Nc4cccc(Cl)c4F)ncnc3cc2OC)CC1 [Sapitinib]	> 1000	> 1000		
CC1CCC(n2c3cnccc3c3cnc(Nc4ccc5c(n4)CCN(C(=O)CO)C5)nc32)CC1 (stereo not given) [AMG-925]	> 1000	> 1000		
NC(=O)c1cccc(-c2cccc(OC(=O)NC3CCCCC3)c2)c1 [URB597]	> 1000		> 1000	> 1000
O=C(c1cccc(Cl)c1F)N1CCN(Cc2cccc(Nc3nccs3)n2)CC1 [MK-8745]	> 2500		231	623
COc1cc2nccc(Oc3ccc(NC(=O)NC4CC4)c(Cl)c3)c2cc1C(N)=O [Lenvatinib]	> 2500	> 2500		
CNC(=O)c1cccc2cc(Oc3ccnc4cc(OCC5(N)CC5)c(OC)cc34)ccc12 [Lucitanib]	> 10000		1420	3710
Cn1ncc(Cl)c1-c1cc(C(=O)N[C@H](CN)Cc2cccc(F)c2)sc1Cl [Afuresertib]	> 1000		327	> 1000
CC[C@H](NC(=O)[C@H](C)NC)C(=O)N1C[C@@H](O)C[C@H]1Cc1c(-c2[nH]c3cc(F)ccc3c2C[C@@H]2C[C@H](O)CN2C(=O)[C@H](CC)NC(=O)[C@H](C)NC)[nH]c2cc(F)ccc12 [Birinapant]	> 1000		> 1000	> 1000
